Read-outs that look alike come from different tables or passages of the source.
How the values were obtained:
[1] = system: A549 cells; assay: Antiproliferative activity (MTT) against A549 tumor cell line; type: cell-based, human; conditions: for IC50: read-out: A549 IC50; for Selective Index SI A549: PBMC LD50 vs A549 IC50
Procedure: (§2) Cells were treated with increasing concentrations of the hybrids in triplicates, pre-diluted in DMEM + 2% FBS, and incubated for 120 h. The toxic effect of the molecules was also evaluated on human lung cancer cell lines (A549 and H460), as well as on PBMC. […] In all experiments, untreated controls, vehicle (0.2% v/v DMSO), and blanks (no added cells) were included. […] Then, 20 µL of 3.0 mM MTT saline was added and incubated for another 1.5 h. The supernatant was removed, and the MTT formazan crystals were dissolved by adding 120 µL/well of DMSO. After incubation for 1.5 h to dissolve the MTT crystals away from light and at 37 °C, the absorbance was measured at λ = 570 nm using a plate reader.

[2] = system: H460 cells; assay: Antiproliferative activity (MTT) against H460 tumor cell line; type: cell-based, human; conditions: for IC50: read-out: H460 IC50; for Selective Index SI H460: PBMC LD50 vs H460 IC50; for Fold increase in potency compared with analog 7, H460: IC50 ratio vs 7
Procedure: as §2

[3] = biological target: T. cruzi amastigotes (Tulahuen C2C4-LacZ); assay: Trypanocidal activity against intracellular amastigotes (CPRG, beta-galactosidase); type: cell-based, Trypanosoma cruzi; conditions: for IC50: 120 h, in LLC-MK2 host cells; for Selective Index: LLC-MK2 IC50 vs T. cruzi amastigote IC50
Procedure: The antiparasitic activity assays used the Tulahuen C2C4-LacZ strain of the Trypanosoma cruzi parasite, being evaluated in the amastigote forms. […] Trypomastigote forms were collected from the culture supernatant between the 5th and 10th day after infection and separated from non-adherent cells by differential centrifugation. Epimastigote evolutionary form parasites were cultivated in LIT medium (Liver Infusion Tryptose), supplemented with hemin (25 mg/L) + 10% FBS, and incubated at 28 °C, performing successive passages every 6–7 days.
Non-internalized parasites were removed by three successive washes with PBS, followed by treatment with increasing concentrations of the hybrids (0.64–100 µM) in triplicates, pre-diluted in DMEM + 2% FBS. Untreated vehicle (0.2% v/v DMSO) and blank (no added parasites) controls were included in the experiment. Increasing concentrations of Benznidazole were used as the positive control. After incubation for 5 days (120 h), 30 µL of 0.5 mM chlorophenol red substrate β-galactopyranoside (CPRG) in PBS was added with 0.9% v/v of Igepal CA-630.

[4] = system: LLC-MK2 (host cells); assay: Cytotoxicity (MTT) on LLC-MK2 host cells; type: cell-based; conditions: 120 h, MTT
Description: (§1) Mammalian cells were used to evaluate the cytotoxicity of the tested compounds. […] Cells were dissociated from the monolayer by treatment with a solution containing 0.25% w/v trypsin and 0.04% EDTA.

[5] = system: peripheral blood mononuclear cells (PBMC); assay: Cytotoxicity (MTT) on peripheral blood mononuclear cells; conditions: for PBMC LD50: 72 h, MTT
Procedure: as §2

[6] = Cytotoxicity (MTT) on LLC-MK2 host cells; type: cell-based; conditions: rhesus monkey
Description: as §1

[7] = system: peripheral blood mononuclear cells (PBMC); conditions: human, 72 h
Procedure: as §2

[8] = system: A549 cells; assay: Cell cycle analysis by PI flow cytometry; type: cell-based, human; conditions: A549, 72 h treatment at IC50; for Cells in G2-M phase: control approximately 20%
Procedure: The cell cycle phase was determined using a PI solution, according to a method described elsewhere. […] Cell cycle determination was performed on a FACScalibur flow cytometer (BD Biosciences, San Diego, CA, USA). Post-analysis of the cell cycle assay was performed using Summit software (version 4.3, Dako Colorado, Fort Collins, CO, USA).

[9] = system: A549 cells; assay: Cell death analysis by Annexin V/PI flow cytometry; type: cell-based, human; conditions: A549, 48 h at IC50; control 2.38%
Procedure: Cell death analysis was performed by using an Annexin V/PI double staining kit (PharMingen, San Diego, CA, USA) as previously described. For the assay, the cells were plated at a density of 1 × 10^6 cells/well in six-well plates, 2 mL/well. […] After incubating for 15 min at room temperature in the dark, 400 µL of binding buffer was added. The two-color flow cytometry analysis was performed on a FACSCalibur device (Becton Dickinson, Franklin Lakes, NJ, USA). Post-analysis was performed in Summit software (version 4.3, Dako Colorado, Fort Collins, CO, USA).

[10] = Stability in PBS by HPLC-DAD; type: physicochemical; conditions: PBS pH 7.4, 37 °C; for Chemical stability in PBS: 24 h incubation
Procedure: The analytical conditions were as follows: Column Restek, Allure Organic Acid C18, 150 mm × 4.6 mm × 5 µm (Bellefonte, PA, USA); mobile phase, 40% water with 0.1% formic acid, 60% acetonitrile with 0.1% formic acid, 1.0 mL/min, isocratic elution; injection volume, 5 µL; detectors, PDA (200–800 nm). […] After incubation, 100 µL of reaction mixtures were added to 900 µL of HPLC mobile phase and injected.

[11] = system: T. cruzi epimastigotes (Y strain); design: method as in PMID 27658305; conditions: read-out: IC50 against epimastigotes (Y strain); cited from earlier work
[12] = system: T. cruzi (Y strain) amastigotes; design: method as in PMID 27658305; conditions: cited from earlier work
[13] = Homo sapiens, NCI-H460, 72 h, MTT

## (1E,6E)-1-(4-Hydroxy-3-methoxyphenyl)-7-(4-hydroxyphenyl)hepta-1,6-dien-3,5-dione [Compound 2, reference compound]
[1]; 72 h, MTT
  IC50: 73.3 ± 6.98 µM
[1]
  Selective Index SI A549: 1.96
[2]; 72 h, MTT
  IC50: 25.1 ± 5.55 µM
[2]
  Selective Index SI H460: 5.76
[3]
  IC50: 31.3 ± 0.77 µM
  Selective Index: 0.72
[4]
  IC50: 22.7 ± 3.71 µM
[5]
  PBMC LD50: 144.3 ± 12.30 µM

## COc1cc(/C=C2\CN(C)C/C(=C\c3ccc(O)c(OC)c3)C2=O)ccc1O [Compound 9, (3E,5E)-3,5-Bis(4-hydroxy-3-methoxybenzylidene)-1-methylpiperidin-4-one]
[1]; Homo sapiens, A549, 72 h, MTT
  IC50: 61.1 ± 6.2 µM
[1]
  Selective Index SI A549: 1.19
[2]; [13]
  IC50: 9.89 ± 3.03 µM
[2]
  Fold increase in potency compared with analog 7, H460: 4.3 fold
  Selective Index SI H460: 7.40
[3]
  Selective Index: 2.95
[3]; Trypanosoma cruzi, TULAHUEN
  IC50: 9.6 ± 1.61 µM
[6]
  IC50 at 120 h: 28.4 ± 3.8 µM
[7]
  PBMC LD50: 73.25 ± 5.87 µM

## COc1cc(/C=C2\CS(=O)(=O)C/C(=C\c3ccc(O)c(OC)c3)C2=O)ccc1O [Compound 12, (3Z,5Z)-3,5-Bis(4-hydroxy-3-methoxybenzylidene)dihydro-2H-thiopyran-4(3H)-one 1,1-dioxide]
[1]; Homo sapiens, A549, 72 h, MTT
  IC50: 5.89 ± 2.81 µM
[1]
  Selective Index SI A549: 29.37
[2]; [13]
  IC50: 0.27 ± 0.2 µM
[2]
  Selective Index SI H460: 640.74
[3]
  Selective Index: 1.56
[3]; Trypanosoma cruzi, TULAHUEN
  IC50: 7.33 ± 0.43 µM
[6]
  IC50 at 120 h: 11.5 ± 3.71 µM
[8]
  Cells in sub-G0 phase: 30%
  Cells in G2-M phase: 60%
[9]
  Double-positive cells for annexin and PI (late apoptosis): 14.98%
[7]
  PBMC LD50: 173.0 ± 37.4 µM

## COc1cc(/C=C2\CSC/C(=C\c3ccc(O)c(OC)c3)C2=O)ccc1O [Compound 10, (3Z,5Z)-3,5-Bis(4-hydroxy-3-methoxybenzylidene)dihydro-2H-thiopyran-4(3H)-one]
[1]; Homo sapiens, A549, 72 h, MTT
  IC50: 37 ± 8.28 µM
[1]
  Selective Index SI A549: 5.04
[2]; [13]
  IC50: 12.8 ± 3.94 µM
[2]
  Selective Index SI H460: 14.56
[3]
  Selective Index: 2.20
[3]; Trypanosoma cruzi, TULAHUEN
  IC50: 5.87 ± 2.89 µM
[6]
  IC50 at 120 h: 13 ± 2.36 µM
[7]
  PBMC LD50: 186.4 ± 35.15 µM

## COc1cc(/C=C/C(=O)c2ccc(O)c(OC)c2)ccc1O [Compound 5, (E)-1,3-Bis(4-hydroxy-3-methoxyphenyl)prop-2-en-1-one]
[1]; Homo sapiens, A549, 72 h, MTT
  IC50: 58 ± 6.75 µM
[1]
  Selective Index SI A549: 2.05
[2]; [13]
  IC50: 1.74 ± 0.28 µM
[2]
  Selective Index SI H460: 68.44
[3]
  Selective Index: 0.55
[3]; Trypanosoma cruzi, TULAHUEN
  IC50: 15.6 ± 4.08 µM
[6]; 120 h, MTT, read-out: LLC-MK2 (Host Cells) 120 h IC50
  IC50 at 120 h: 8.72 ± 2.42 µM
[7]
  PBMC LD50: 119.1 ± 16.35 µM

## COc1cc(/C=C/C(=O)/C=C/c2ccc(O)c(OC)c2)ccc1O [Compound 4, (1E,4E)-1,5-Bis(4-hydroxy-3-methoxyphenyl)penta-1,4-dien-3-one]
[1]; Homo sapiens, A549, 72 h
  IC50: 18.1 ± 4.72 µM
[2]; Homo sapiens, NCI-H460, 72 h
  IC50: 10.2 ± 3.76 µM
[2]
  Selective Index SI H460: > 19.60
[3]; Trypanosoma cruzi, TULAHUEN
  IC50: 3.92 ± 0.33 µM
[6]
  IC50 at 120 h: < 6.4 µM
[10]
  Chemical stability in PBS: remained untouched
[5]
  PBMC LD50: >200 µM
[5]; higher concentration tested
  Toxic effects against peripheral blood mononuclear cells: did not present toxic effects

## COc1cc(/C=C2\C[S+]([O-])C/C(=C\c3ccc(O)c(OC)c3)C2=O)ccc1O (stereo not drawn) [Compound 11, (3Z,5Z)-3,5-Bis(4-hydroxy-3-methoxybenzylidene)dihydro-2H-thiopyran-4(3H)-one 1-oxide]
[1]; Homo sapiens, A549, 72 h, MTT
  IC50: 7.74 ± 1.65 µM
[2]; [13]
  IC50: 1.02 ± 0.29 µM
[2]
  Selective Index SI H460: > 196.07
[3]
  Selective Index: 1.70
[3]; Trypanosoma cruzi, TULAHUEN
  IC50: 16.7 ± 4.67 µM
[6]
  IC50 at 120 h: 28.5 ± 5.17 µM
[7]
  PBMC LD50: >200 µM

## O=C(Cn1ccnc1[N+](=O)[O-])NCc1ccccc1 [Benznidazole, reference compound]
[3]
  Selective Index: > 133
[3]; Trypanosoma cruzi, TULAHUEN
  IC50: 1.5 ± 0.33 µM
[6]
  IC50 at 120 h: > 200 µM

## COc1cc(/C=C2\CC/C(=C\c3ccc(O)c(OC)c3)C2=O)ccc1O [Compound 6, 2,5-Bis((E)-4-hydroxy-3-methoxybenzylidene)cyclopentan-1-one]
[1]; Homo sapiens, A549, 72 h, MTT
  IC50: 71.3 ± 1.53 µM
[1]
  Selective Index SI A549: 1.97
[2]; [13]
  IC50: 36.1 ± 7.14 µM
[2]
  Selective Index SI H460: 3.90
[3]; Trypanosoma cruzi, TULAHUEN
  IC50: 8.35 ± 2.35 µM
[6]
  IC50 at 120 h: < 6.4 µM
[7]
  PBMC LD50: 141.1 ± 18.53 µM

## COc1cc(/C=C2\COC/C(=C\c3ccc(O)c(OC)c3)C2=O)ccc1O [Compound 8, (3E,5E)-3,5-Bis(4-hydroxy-3-methoxybenzylidene)tetrahydro-4H-pyran-4-one]
[1]; Homo sapiens, A549, 72 h, MTT
  IC50: 8.1 ± 1.27 µM
[1]; IC50 ratio vs 7
  Fold increase in potency compared with parent derivative 7, A549: ~10 fold
[1]
  Selective Index SI A549: 16.27
[2]; [13]
  IC50: 1.46 ± 0.28 µM
[2]
  Fold increase in potency compared with analog 7, H460: ~30 fold
[3]
  Selective Index: 1.60
[3]; Trypanosoma cruzi, TULAHUEN
  IC50: 12.8 ± 5.17 µM
[6]
  IC50 at 120 h: 20.6 ± 4.65 µM
[10]
  Chemical stability in PBS: remained untouched
[7]
  PBMC LD50: 131.8 ± 14.52 µM

## N.N.[Cl][Pt][Cl] [Cisplatin, reference compound]
[1]; 72 h, MTT
  IC50: 6.05 ± 0.58 µM
[2]; 72 h, MTT
  IC50: 2.96 ± 0.44 µM

## O=C(/C=C/c1ccc(O)cc1)CC(=O)/C=C/c1ccc(O)cc1 [Compound 3, (1E,6E)-1,7-Bis(4-hydroxyphenyl)hepta-1,6-diene-3,5-dione, reference compound]
[1]; Homo sapiens, A549, 72 h, MTT
  IC50: 46.5 ± 3.45 µM
[1]
  Selective Index SI A549: 2.88
[2]; [13]
  IC50: 27.1 ± 4.35 µM
[3]
  Selective Index: 1.11
[3]; Trypanosoma cruzi, TULAHUEN
  IC50: 17.6 ± 0.26 µM
[6]
  IC50 at 120 h: 19.7 ± 0.87 µM
[7]
  PBMC LD50: 134.1 ± 13.30 µM

## COc1cc(/C=C2\CCC/C(=C\c3ccc(O)c(OC)c3)C2=O)ccc1O [Compound 7, 2,6-Bis((E)-4-hydroxy-3-methoxybenzylidene)cyclohexan-1-one]
[1]; Homo sapiens, A549, 72 h, MTT
  IC50: 76.2 ± 9.49 µM
[2]; [13]
  IC50: 42.6 ± 3.94 µM
[3]; Trypanosoma cruzi, TULAHUEN
  IC50: 4.91 ± 0.4 µM
[6]
  IC50 at 120 h: < 6.4 µM
[7]
  PBMC LD50: >200 µM

## COc1cc(/C=C/C(=O)CC(=O)/C=C/c2ccc(O)c(OC)c2)ccc1O [Compound 1, (1E,6E)-1,7-Bis(4-hydroxy-3-methoxyphenyl)hepta-1,6-dien-3,5-dione, reference compound]
[1]; Homo sapiens, A549, 72 h
  IC50: 56.5 ± 3.75 µM
[2]; Homo sapiens, NCI-H460, 72 h
  IC50: 37.9 ± 8.81 µM
[3]; Trypanosoma cruzi, TULAHUEN
  IC50: 17.8 ± 6.88 µM
[6]
  IC50 at 120 h: 25.7 ± 6.05 µM
[10]
  Fraction decomposed in PBS: approximately 70%
[8]
  Cells in G2-M phase: 80%
[7]
  PBMC LD50: 146.5 ± 12.08 µM
[11]
  IC50: 10.1 µM
[12]
  Amastigote release from infected mouse macrophages: inhibited amastigote release

— publication PMC12030033, “Design and Synthesis of Bis-Chalcones as Curcumin Simplified Analogs and Assessment of Their Antiproliferative Activities Against Human Lung Cancer Cells and Trypanosoma cruzi Amastigotes” (Pharmaceuticals, 2025)
